Consider 2 compounds from paper PMC10539361, “Allosteric modulation of the fish taste receptor type 1 (T1R) family by the extracellular chloride ion” (Scientific Reports, 2023).

The subject of one experiment is mfT1R2b E260A/mfT1R3. The format is cell-based, medaka fish. The conditions noted are these: 10 mM vs high Cl- buffer.
A further experiment has as its system mfT1R2b E260K/mfT1R3. The experiment is classed as cell-based, medaka fish. The conditions noted are these: 10 mM vs high Cl- buffer.
In another experiment the target is mfT1R2b/mfT1R3 T105E (Oryzias latipes, UniProt Q2MHK2+Q2MHK4, Q2MHK2:T105E). As to the kind of experiment: cell-based. The conditions noted are these: EC50, [Cl-]o=10 mM; unit inferred.
Chain of mfT1R2b/mfT1R3 T105E (Q2MHK2 entry or part of it T105E): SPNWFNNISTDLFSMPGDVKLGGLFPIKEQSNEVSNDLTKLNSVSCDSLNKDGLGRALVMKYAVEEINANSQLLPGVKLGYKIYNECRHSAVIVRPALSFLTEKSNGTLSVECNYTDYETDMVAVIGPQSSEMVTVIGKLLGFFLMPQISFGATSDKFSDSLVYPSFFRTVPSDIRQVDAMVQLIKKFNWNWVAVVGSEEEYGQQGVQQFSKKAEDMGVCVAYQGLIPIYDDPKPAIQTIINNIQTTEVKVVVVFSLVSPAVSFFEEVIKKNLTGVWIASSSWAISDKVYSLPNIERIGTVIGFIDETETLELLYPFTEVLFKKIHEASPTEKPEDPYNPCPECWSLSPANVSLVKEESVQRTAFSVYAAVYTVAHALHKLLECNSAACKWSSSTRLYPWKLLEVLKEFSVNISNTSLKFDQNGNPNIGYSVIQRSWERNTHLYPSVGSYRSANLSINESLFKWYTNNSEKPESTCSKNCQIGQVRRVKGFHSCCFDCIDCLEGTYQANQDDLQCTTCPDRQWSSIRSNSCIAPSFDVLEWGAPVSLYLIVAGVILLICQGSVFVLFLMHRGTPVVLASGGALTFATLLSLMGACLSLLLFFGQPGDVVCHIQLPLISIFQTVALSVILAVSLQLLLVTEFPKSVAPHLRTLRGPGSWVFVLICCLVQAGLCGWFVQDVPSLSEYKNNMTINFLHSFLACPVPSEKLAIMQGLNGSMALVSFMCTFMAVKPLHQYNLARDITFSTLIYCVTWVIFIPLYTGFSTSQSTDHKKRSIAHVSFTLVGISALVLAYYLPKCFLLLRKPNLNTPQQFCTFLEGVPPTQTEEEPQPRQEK
Chain of mfT1R2b/mfT1R3 T105E (Q2MHK4 entry or part of it): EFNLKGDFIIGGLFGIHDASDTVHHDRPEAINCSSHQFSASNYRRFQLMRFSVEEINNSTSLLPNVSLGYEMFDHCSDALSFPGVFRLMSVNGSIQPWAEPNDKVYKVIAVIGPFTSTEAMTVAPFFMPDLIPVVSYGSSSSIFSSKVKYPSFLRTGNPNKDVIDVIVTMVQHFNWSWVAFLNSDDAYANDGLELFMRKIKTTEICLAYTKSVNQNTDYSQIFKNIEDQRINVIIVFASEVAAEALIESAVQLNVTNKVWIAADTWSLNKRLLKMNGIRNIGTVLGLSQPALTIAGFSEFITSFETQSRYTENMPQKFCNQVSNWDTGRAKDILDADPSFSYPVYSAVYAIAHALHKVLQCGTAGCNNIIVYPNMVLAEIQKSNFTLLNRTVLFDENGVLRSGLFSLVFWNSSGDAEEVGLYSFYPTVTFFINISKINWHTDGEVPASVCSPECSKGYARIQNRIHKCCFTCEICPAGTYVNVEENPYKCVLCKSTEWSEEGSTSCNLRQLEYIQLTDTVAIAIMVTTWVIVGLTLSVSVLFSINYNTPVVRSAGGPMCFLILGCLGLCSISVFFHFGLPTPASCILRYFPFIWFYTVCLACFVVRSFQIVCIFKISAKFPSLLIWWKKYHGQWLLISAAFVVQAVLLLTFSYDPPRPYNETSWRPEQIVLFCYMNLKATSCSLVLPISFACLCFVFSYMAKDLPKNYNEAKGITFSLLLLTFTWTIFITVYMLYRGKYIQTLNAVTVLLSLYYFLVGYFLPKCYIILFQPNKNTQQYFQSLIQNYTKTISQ
In experiment [1] the target is T1, zfT1R2b/zfT1R3 (Danio rerio, UniProt A0A8M1NDZ5+Q2MHK9).
T1 sequence (A0A8M1NDZ5 18-823): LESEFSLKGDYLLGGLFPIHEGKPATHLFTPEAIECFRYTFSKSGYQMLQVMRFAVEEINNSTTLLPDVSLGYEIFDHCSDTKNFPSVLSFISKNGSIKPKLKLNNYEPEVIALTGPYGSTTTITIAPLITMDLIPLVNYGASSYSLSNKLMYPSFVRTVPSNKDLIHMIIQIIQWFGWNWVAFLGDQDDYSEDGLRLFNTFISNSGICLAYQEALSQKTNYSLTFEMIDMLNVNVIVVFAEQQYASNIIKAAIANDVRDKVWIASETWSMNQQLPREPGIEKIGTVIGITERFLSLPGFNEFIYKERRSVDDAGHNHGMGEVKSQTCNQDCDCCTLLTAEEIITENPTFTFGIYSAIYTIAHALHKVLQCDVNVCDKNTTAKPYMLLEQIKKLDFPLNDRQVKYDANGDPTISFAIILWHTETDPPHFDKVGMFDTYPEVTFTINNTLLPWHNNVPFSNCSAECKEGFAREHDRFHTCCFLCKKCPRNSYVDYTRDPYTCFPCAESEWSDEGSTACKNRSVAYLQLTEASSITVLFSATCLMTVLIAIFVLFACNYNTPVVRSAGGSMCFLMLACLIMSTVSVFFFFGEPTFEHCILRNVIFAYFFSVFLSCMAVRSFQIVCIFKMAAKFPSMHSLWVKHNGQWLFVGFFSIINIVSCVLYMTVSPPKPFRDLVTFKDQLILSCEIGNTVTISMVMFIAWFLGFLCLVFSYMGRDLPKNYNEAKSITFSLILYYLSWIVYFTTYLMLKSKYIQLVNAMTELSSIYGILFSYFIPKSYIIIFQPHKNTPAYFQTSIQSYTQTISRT
T1 sequence (Q2MHK9 25-850): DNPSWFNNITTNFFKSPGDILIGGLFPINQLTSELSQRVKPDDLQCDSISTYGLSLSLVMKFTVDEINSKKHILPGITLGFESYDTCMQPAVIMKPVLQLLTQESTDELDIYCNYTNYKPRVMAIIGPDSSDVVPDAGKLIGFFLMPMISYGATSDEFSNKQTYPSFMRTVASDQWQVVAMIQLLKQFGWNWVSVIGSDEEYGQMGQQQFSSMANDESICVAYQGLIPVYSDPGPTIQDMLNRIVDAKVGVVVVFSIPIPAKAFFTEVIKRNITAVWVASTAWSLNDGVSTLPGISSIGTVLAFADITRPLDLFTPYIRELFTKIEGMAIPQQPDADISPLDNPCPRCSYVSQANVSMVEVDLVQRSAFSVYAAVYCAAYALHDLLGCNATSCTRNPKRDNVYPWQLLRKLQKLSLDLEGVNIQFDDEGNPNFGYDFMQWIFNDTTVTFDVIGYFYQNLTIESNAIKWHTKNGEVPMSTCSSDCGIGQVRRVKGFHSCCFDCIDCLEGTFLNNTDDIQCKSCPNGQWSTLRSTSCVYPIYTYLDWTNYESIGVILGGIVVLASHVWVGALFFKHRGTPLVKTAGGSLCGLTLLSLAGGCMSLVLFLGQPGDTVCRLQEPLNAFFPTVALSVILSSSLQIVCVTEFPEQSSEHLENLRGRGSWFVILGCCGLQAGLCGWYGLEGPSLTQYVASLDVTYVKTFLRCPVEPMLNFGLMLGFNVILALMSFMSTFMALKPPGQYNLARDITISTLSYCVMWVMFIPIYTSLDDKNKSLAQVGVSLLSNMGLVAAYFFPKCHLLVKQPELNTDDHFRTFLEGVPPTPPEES
As to the kind of experiment: cell-based.
Procedure: (§1) The buffers with lower Cl^− were prepared by progressively replacing NaCl, KCl, CaCl2 and MgCl2 in the buffer with gluconate equivalents[20]. The pH was adjusted to 7.4 with NaOH. Ligands were diluted with the assay buffers at the desired concentrations.
Measurements of the responses of the cells by cell-based assay based on the intracellular Ca^2+ mobilization were carried out as described previously with some modifications[20],[34],[46],[47]. […] The cells were seeded in 96-well plates (clear-bottomed CellBIND surface plate, Corning, Glendale, AZ, USA) coated with ε-poly-L-lysine (Cosmo Bio, Tokyo, Japan) at approximately 70,000 cells per well. After 20 h, the medium was removed and replaced with high Cl^− buffer. After 3 h 30 min incubation at 27 °C, cells were loaded with 5 µM calcium-indicator dye Fluo-8 AM (AAT Bioquest, Sunnyvale, CA, USA) diluted in high Cl^− buffer. After incubation for 30 min at 27 °C, the cells were washed with buffers containing appropriate concentrations of Cl^−. The cellular assay was initiated after 3–5 min of resting and was completed within 5 min. The measurements were made using FlexStation 3 (Molecular Devices, Sunnyvale, CA, USA) at 27 °C. Fluorescence changes (i.e., excitation at 485 nm and emission at 525 nm with a cutoff at 515 nm) were monitored at 2 s intervals. A 100-µL aliquot of assay buffer supplemented with 2 × ligands was added at 20 s, and scanning was continued for an additional 40 s. The response of each well was determined as ∆RFU (delta relative fluorescent units), which was calculated as (maximum fluorescent value)—(minimum fluorescent value). […] Such normalized data from more than three independent experiments are reported as the mean ± standard error of the mean (SEM). Dose‒response fitting curves were calculated by Prism 9 (GraphPad Software, San Diego, CA) using nonlinear regression (log(agonist) vs. response—variable slope), based on the integrated data from the several independent experiments.

The next experiment concerns mfT1R2b/mfT1R3. As to the kind of experiment: Ca2+ mobilization dose-response assay, stable cells expressing mfT1R2b/mfT1R3 with G16gust44. The conditions noted are these: 10 mM vs 141.4 mM Cl- buffer.
For experiment [2], the target named is T1, zfT1R2b/zfT1R3. As to the kind of experiment: Effect of anions, cations and osmotic pressure on cellular responses, cells in 10 mM Cl- buffer, zfT1R2b/zfT1R3. The experiment is classed as cell-based, zebrafish. The conditions noted are these: coapplied with 2 mM L-Ala, increasing salt concentration. The method, then: Cells were seeded in 96-well plates coated with ε-poly-L-lysine at approximately 70,000 cells per well. […] Fluorescence changes were monitored at 2 s intervals, as described above. […] Three independent experiments were conducted for each receptor, and representative results are shown as the mean ± SEM (n = 3 replicates). Statistical tests were conducted using KyPlot version 6.0 (KyensLab Inc., Tokyo, Japan). Statistical significance was set at p < 0.05.

Procedure for mfT1R2b E260A/mfT1R3: as §1
(§2) Measurements of the responses of the cells by cell-based assay based on the intracellular Ca^2+ mobilization were carried out as described previously with some modifications[20],[34],[46],[47]. […] The cells were seeded in 96-well plates (clear-bottomed CellBIND surface plate, Corning, Glendale, AZ, USA) coated with ε-poly-L-lysine (Cosmo Bio, Tokyo, Japan) at approximately 70,000 cells per well. After 20 h, the medium was removed and replaced with high Cl^− buffer. […] Fluorescence changes (i.e., excitation at 485 nm and emission at 525 nm with a cutoff at 515 nm) were monitored at 2 s intervals. […] The response of each well was determined as ∆RFU (delta relative fluorescent units), which was calculated as (maximum fluorescent value)—(minimum fluorescent value). […] Dose‒response fitting curves were calculated by Prism 9 (GraphPad Software, San Diego, CA) using nonlinear regression (log(agonist) vs. response—variable slope), based on the integrated data from the several independent experiments.
Procedure for mfT1R2b E260K/mfT1R3: as §1, §2
Procedure for mfT1R2b/mfT1R3 T105E: as §1
Measurements of the responses of the cells by cell-based assay based on the intracellular Ca^2+ mobilization were carried out as described previously with some modifications[20],[34],[46],[47]. Cell lines stably expressing T1R2, T1R3 and chimeric G-protein α-subunit, G16gust44[48], were constructed using the Flp-In pcDNA5/FRT complete system (Thermo Fisher Scientific, Waltham, MA, USA) described in our previous studies[34],[46]. […] Fluorescence changes (i.e., excitation at 485 nm and emission at 525 nm with a cutoff at 515 nm) were monitored at 2 s intervals. […] The response of each well was determined as ∆RFU (delta relative fluorescent units), which was calculated as (maximum fluorescent value)—(minimum fluorescent value). […] Dose‒response fitting curves were calculated by Prism 9 (GraphPad Software, San Diego, CA) using nonlinear regression (log(agonist) vs. response—variable slope), based on the integrated data from the several independent experiments.

Take `C[C@H](N)C(=O)O` [L-Ala, L-alanine]: the “effect of [Cl-]o on sensitivity” value in the experiment with mfT1R2b E260A/mfT1R3 and in the experiment on mfT1R2b E260K/mfT1R3 was “hardly affected” in each case. For the same compound, the EC50 (usually the concentration needed to bring the measured effect to its halfway point) at mfT1R2b/mfT1R3 T105E came out at 11.4 mM; at zfT1R2b/zfT1R3 [1], 2.9 mM. Also, in the experiment on mfT1R2b/mfT1R3, the “effect of anionic buffer composition on sensitivity” value is reported as “hardly affected”.

In the case of `[Cl-].[Na+]` [NaCl], the “response to fixed concentration of L-Ala on coapplication” value on zfT1R2b/zfT1R3 [2] is reported as “decreased”.
